Experiments:
HESCs (H1, BGN1) = assay: Feeder-free culture of HESCs, undifferentiated morphology; format: cell-based, human; conditions: for morphology / undifferentiated phenotype of HESCs: feeder-free, non-conditioned medium, 6-bromoindirubin-3′-oxime and Me analogue 2 μM, LiCl 5 mM, Wnt3a protein
Protocol: (§1) Cell culture. Human embryonic stem cells (HESCs) lines were provided by WiCell Research Institute (H1 line)^5 and BresaGen Inc. (BGN1 and BGN2 lines). H1 cells were cultivated on irradiated mouse embryonic fibroblasts (MEFs) in medium consisting of 80% DMEM/F12 medium, 20% knockout serum replacement (KSR), 1 mM L-glutamine, 1% non-essential amino acids, 0.1 mM β-mercaptoethanol, and 4 ng/ml basic FGF (all from Invitrogen). […] Subsequently, HESCs were cultured on Matrigel (BD biosciences) in medium conditioned by MEFs, and passaged several times until colonies became free from contaminating MEFs as described before^9.

[1] = test system: canonical Wnt pathway (TCF binding sites, TopFlash); assay: TopFlash/FopFlash luciferase reporter assay in CJ7 cells (MESCs); format: cell-based, mouse; conditions: CJ7 cells (MESCs); FIG. 2b
Protocol: (§2) Luciferase assay. […] Test compounds were added 24 hrs after transfection. Following incubation for 24 hrs, cells were harvested, and analyzed by the dual luciferase reporter assay system (Promega) using Lumat (Berthold Technologies). Each value was standardized by Renilla luciferase activity.
The canonical Wnt signal occurs through binding of the Wnt protein to the Frizzled receptor at cell surface. It is followed by inactivation of GSK-3, leading to accumulation of β-catenin in the nucleus that activates the transcription of Wnt target genes in collaboration with TCFs^18,19. Alternatively, Wnt signaling can be activated by direct, intracellular inhibition of the GSK-3 function using specific inhibitors^20. […] First we examined whether mouse and human ESCs were capable of transducing Wnt signaling under the influence of 6-bromoindirubin-3′-oxime. […] We then evaluated expression of β-catenin at the cellular level as a read-out of the activation status of the canonical Wnt pathway in HESCs.

CJ-GFP cells (MESCs) = assay: Low-density culture of CJ-GFP MESCs without LIF, morphology; format: cell-based, mouse; conditions: 1 μM; 7 d plus 5 d at low density; data not shown for Me analogue
Protocol: Teratoma formation. We grew CJ-GFP cells at a low density (500 cells/cm^2) on gelatin-coated 10 cm dishes in medium containing 6-bromoindirubin-3′-oxime 1 μM for 7 d, then passaged cells at the same density and cultured under the same condition another 5 d to further enforce differentiation of cells.

Rex-1 promoter [2] = assay: Rex-1 YFP reporter line CJRex-Y (imaging / FACS); format: cell-based, mouse; conditions: CJRex-Y cells, 5 d
Protocol: Generation of stable mouse ES lines. CJ7 ES cells were transfected with pRex-1-Venus, pTY or pCAG-HygEGFP by using Lipofectamine 2000 (Invitrogen) followed by G418 (Invitrogen) selection at 200 μg/ml (for CJRex-Y or CJ-TY) or hygromycine (Invitrogen) selection at 600 μg/ml (for CJ-GFP). Two weeks after the drug selection, a number of single colonies were picked up, expanded and used for the further analyses.
FACS analysis of MESCs. We cultured CJRex-Y cells at a low density (500 cells/cm^2) on gelatin-coated 10 cm dishes in mouse ES cell medium alone, medium containing LIF, medium conditioned from wild type L cells or medium conditioned from Wnt3a-L cells (ATCC) for 5 days. The Wnt3a conditioned medium was prepared according to the provider's protocol. Cells were harvested, resuspended in mouse ES medium and subjected to FACS analysis using FACSVantage SE system (BD Biosciences).

Oct-3/4 = Oct-3/4 immunocytochemistry in HESCs; format: cell-based, human; conditions: HESCs in non-conditioned medium; FIG. 4c
Protocol: as §1
Immunofluorescence. Cells were fixed in 4% paraformaldehyde for 20 min at room temperature and incubated overnight at 4° C. with primary antibodies against Oct-4 (BD Biosciences), β-catenin (BD Biosciences), Tuj-1 (BAbCO), cytokeratin (Sigma), glial fibrillary acidic protein, GFAP, (Dako), smooth muscle actin (Research Diagnostics Inc), α-fetoprotein (α-FP, Cell Sciences) and Tromal (Developmental Studies Hybridoma Bank). For nuclear localization analysis, the fixed samples were subjected to fluorescent digital confocal imaging analysis using a Zeiss LSM 510 confocal microscope (Carl Zeiss). For mouse embryonic tissue sections, mid gestation embryos were fixed in 4% paraformaldehyde followed by paraffin embedding and tissue sectioning. After deparaffinization, tissue sections were incubated with a GFP-specific antibody (Molecular Probe) at 4° C. overnight. Antigens were localized by using goat anti-mouse IgG conjugated to Cy3 or goat anti-rabbit IgG conjugated to Cy2 (Zymed laboratories). For the quantitative image analysis, fluorescent images from triplicate samples were taken by the Discovery1 system (Universal Imaging Corporation). The fluorescent objects were selected by the threshold function and evaluated in five regions of each well by quantification of pixel intensities and the object size by using MetaMorph software (Universal Imaging Corporation).

Rex-1 promoter [3] = assay: Rex-1 luciferase reporter assay in CJ7 cells; format: cell-based, mouse; conditions: CJ7 cells; compared to LIF-treated cells
Text: Nat Biotechnol 20, 87-90), a small fragment containing the TCF binding sites and the cFos promoter in pTopFlash was excised by XbaI digestion, and cloned into pcDNA3-Venus in which Venus was introduced into the multiple cloning site between BamHI and EcoRI of the pcDNA3 vector (Invitrogen) whose CMV promoter was eliminated by BglII and HindIII digestion. […] To generate the Rex-1-Venus reporter construct, the Rex-1 promoter region was cloned into pcDNA3-Venus.
as §2

β-catenin = β-catenin immunofluorescence confocal analysis in HESCs; format: cell-based, human; conditions: compared to non-conditioned medium treated cells, FIG. 2c
Protocol: as §1
Immunofluorescence. […] For the quantitative image analysis, fluorescent images from triplicate samples were taken by the Discovery1 system (Universal Imaging Corporation). The fluorescent objects were selected by the threshold function and evaluated in five regions of each well by quantification of pixel intensities and the object size by using MetaMorph software (Universal Imaging Corporation).

GSK-3 = conditions: from reference 10; cited from earlier work
cyclin D1 = cyclin D1 immunofluorescence in HESCs; format: cell-based, human; conditions: HESCs (BGN2); non-CM; 6-bromoindirubin-3′-oxime 1.0 μM or Wnt3a protein 100 ng; FIG. 7
Protocol: Immunofluorescence. HESCs were grown in conditioned medium (CM), non-CM, non-CM containing Me 6-bromoindirubin-3′-oxime (1.0 μM), non-CM containing 6-bromoindirubin-3′-oxime (1.0 μM) or non-CM containing recombinant mouse Wnt3a protein (100 ng/ml, R&D systems) for 5 d. Cells were fixed in 4% paraformaldehyde for 20 min at room temperature and incubated overnight at 4° C. with primary antibodies against cyclin D1 (Santa Cruz Technology, Santa Cruz, Calif.). Antigens were localized by using goat anti-rabbit IgG conjugated to Cy3 (Zymed laboratories).

With [Cl-].[Li+] [LiCl, reference compound] the “toxicity to HESCs” value (HESCs (H1, BGN1); 10 mM, FIG. 4c) was “substantial toxicity” and the “morphology / undifferentiated phenotype of HESCs” value (HESCs (H1, BGN1); 7 d) was “failed to maintain the undifferentiated phenotype”.
For CN1C(=O)C(=C2Nc3ccccc3C2=NO)c2ccc(Br)cc21 [Me 6-bromoindirubin-3′-oxime, 1-methyl-6-bromoindirubin-3′-oxime, reference compound], the TopFlash reporter activity [1] was “did not show any change in activity”, the “colony morphology of MESCs without LIF” value (CJ-GFP cells (MESCs)) was “large flat differentiated morphology” and the “colony morphology / cell shape” value (Rex-1 promoter [2]; FIG. 3b) was “flattened cell shape”. The “Rex-1 transcriptional (YFP reporter) activity” value (Rex-1 promoter [2]; absence of LIF) was “substantially lower activity”, the “Oct-3/4 expression at the cellular level” value (Oct-3/4) was “remarkable reduction of Oct-3/4 expression” and the Rex-1 promoter activity (Rex-1 promoter [3]) was “slightly reduced”. The “nuclear accumulation of β-catenin” value (β-catenin) was “did not show obvious difference”, the “GSK-3 / kinase inhibition” value (GSK-3) was “kinase-inactive” and the “morphology / undifferentiated phenotype of HESCs” value (HESCs (H1, BGN1); 7 d) was “fully flattened morphology”.
For Human-derived LIF: Human-derived LIF, the “prevention of HESC differentiation in non-conditioned medium” value (HESCs (H1, BGN1); LIF up to 2,000 to 3,000 U/ml, 7 d) was “failed to prevent the differentiation”.
With Wnt3a the “cyclin D1 expression” value (cyclin D1) was “up-regulated cyclin D1 expression”, the “Oct-3/4 expression at the cellular level” value (Oct-3/4) was “high level of Oct-3/4 expression” and the “morphology / undifferentiated phenotype of HESCs” value (HESCs (H1, BGN1); 7 d) was “maintain compact undifferentiated colonies”.
